Data set [1] in a line: Clearance following intravenous infusion, acylated peptides (1-hour infusion, 0.033 mg/kg). As to conditions: rat, in vivo.
In a further data set the target is human GLP-1R (Homo sapiens, UniProt P43220). In words: Peptide-receptor mediated cAMP accumulation (LANCE Ultra cAMP) in CHO-K1 cells transfected with human GLP-1R. It is filed as cell-based. As to conditions: Table 7; GLP-1R; read-out: GLP-1R pEC50 (converted).
A further data set deals with human GCGR (Homo sapiens, UniProt P47871). The data set can be described thus: Peptide-receptor mediated cAMP accumulation (LANCE Ultra cAMP) in CHO-K1 cells transfected with human GCGR. The format is cell-based. As to conditions: read-out: GluR pEC50 (converted).
human GCGR, sequence (P47871 26-477): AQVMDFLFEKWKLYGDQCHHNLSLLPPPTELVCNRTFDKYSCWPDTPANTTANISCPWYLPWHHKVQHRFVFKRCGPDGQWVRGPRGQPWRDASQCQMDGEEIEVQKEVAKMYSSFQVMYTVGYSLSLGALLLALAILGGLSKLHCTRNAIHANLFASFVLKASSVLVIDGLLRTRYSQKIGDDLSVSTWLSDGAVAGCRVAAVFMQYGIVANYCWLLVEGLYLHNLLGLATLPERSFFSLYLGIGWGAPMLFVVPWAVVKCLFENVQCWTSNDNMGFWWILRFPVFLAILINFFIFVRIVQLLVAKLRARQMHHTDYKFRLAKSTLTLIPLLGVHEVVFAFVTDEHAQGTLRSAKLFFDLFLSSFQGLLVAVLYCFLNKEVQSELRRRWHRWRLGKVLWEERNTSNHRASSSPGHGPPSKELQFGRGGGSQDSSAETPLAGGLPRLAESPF

*1 amine or outer side, *2 acyl side, *3 side chain or, on linkers, in order; H or OH if unused. Where a SMILES comes first, the peptide text is derived from it. Side-chain parts run from the residue outwards. The star is where a group is joined. γGlu = O=C(O)[C@H](CCC(=O)[*:2])N[*:1]; Palmitoyl = CCCCCCCCCCCCCCCC(=O)*

The source of these data is US20240239861A1, “GLUCAGON-RECEPTOR SELECTIVE POLYPEPTIDES AND METHODS OF USE THEREOF” (i2O Therapeutics, Inc., priority 2016, published 2024).

human GLP-1R, sequence (P43220 24-463): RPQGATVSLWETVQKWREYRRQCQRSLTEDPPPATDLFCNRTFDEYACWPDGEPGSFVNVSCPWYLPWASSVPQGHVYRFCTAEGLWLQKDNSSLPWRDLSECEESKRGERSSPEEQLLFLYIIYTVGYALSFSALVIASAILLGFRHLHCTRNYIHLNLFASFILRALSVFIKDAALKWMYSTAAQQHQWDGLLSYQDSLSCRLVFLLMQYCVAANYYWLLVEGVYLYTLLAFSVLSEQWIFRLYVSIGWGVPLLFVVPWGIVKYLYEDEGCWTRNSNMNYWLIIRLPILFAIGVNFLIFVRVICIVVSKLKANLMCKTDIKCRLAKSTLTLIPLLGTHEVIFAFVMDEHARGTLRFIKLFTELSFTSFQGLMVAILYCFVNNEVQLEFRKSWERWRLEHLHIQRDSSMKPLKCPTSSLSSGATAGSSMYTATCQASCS

A word on the clearance: it is a measure of how efficiently the substance is removed, as volume per time. One may read the half-life as the time in which the quantity being followed falls by half. In data set [1], `CCCCCCCCCCCCCCCC(=O)N[C@@H](CCC(=O)NCCCC[C@H](NC(=O)[C@H](CO)NC(=O)[C@H](CO)NC(=O)[C@@H]1CCCN1C(=O)[C@H](CCC(=O)O)NC(=O)[C@H](CC(=O)O)NC(=O)[C@H](CCC(=O)O)NC(=O)[C@H](CC(C)C)NC(=O)[C@H](Cc1c[nH]c2ccccc12)NC(=O)C(C)(C)NC(=O)[C@@H](NC(=O)[C@H](Cc1ccccc1)NC(=O)[C@H](CCC(=O)O)NC(=O)[C@H](CCC(N)=O)NC(=O)[C@H](C)NC(=O)[C@H](CO)NC(=O)[C@H](CCCCN)NC(=O)C(C)(C)NC(=O)[C@H](CC(=O)O)NC(=O)[C@H](CC(C)C)NC(=O)[C@H](Cc1ccc(O)cc1)NC(=O)[C@H](CCCCN)NC(=O)[C@H](CO)NC(=O)[C@H](Cc1ccc(O)cc1)NC(=O)[C@H](CC(=O)O)NC(=O)[C@H](CO)NC(=O)[C@@H](NC(=O)[C@H](Cc1ccccc1)NC(=O)[C@@H](NC(=O)CNC(=O)[C@H](Cc1c[nH]cn1)NC(=O)[C@H](CO)NC(=O)[C@@H](N)Cc1ccc(O)cc1)[C@@H](C)O)[C@@H](C)O)C(C)C)C(=O)N[C@@H](C)C(=O)N1CCC[C@H]1C(=O)N1CCC[C@H]1C(=O)N1CCC[C@H]1C(=O)N[C@@H](CO)C(=O)O)C(=O)O` [Compound B9] yielded a clearance of 0.594 mL/min/kg. In addition, in data set [1], the half-life was 4.98 h. Besides, the EC50 on human GLP-1R was more than 1000 nM; at human GCGR it was 0.00794 nM.

With `CC(C)C[C@H](NC(=O)[C@H](Cc1c[nH]c2ccccc12)NC(=O)[C@H](CCCCNC(=O)COCCOCCNC(=O)COCCOCCNC(=O)CC[C@H](NC(=O)CCCCCCCCCCCCCCCCC(=O)O)C(=O)O)NC(=O)[C@@H](NC(=O)[C@H](Cc1ccccc1)NC(=O)[C@H](CCC(=O)O)NC(=O)[C@H](CCC(N)=O)NC(=O)[C@H](C)NC(=O)[C@H](CO)NC(=O)[C@H](CCCCN)NC(=O)C(C)(C)NC(=O)[C@H](CC(=O)O)NC(=O)[C@H](CC(C)C)NC(=O)[C@H](Cc1ccc(O)cc1)NC(=O)[C@H](CCCCN)NC(=O)[C@H](CO)NC(=O)[C@H](Cc1ccc(O)cc1)NC(=O)[C@H](CC(=O)O)NC(=O)[C@H](CO)NC(=O)[C@@H](NC(=O)[C@H](Cc1ccccc1)NC(=O)[C@@H](NC(=O)CNC(=O)[C@H](Cc1c[nH]cn1)NC(=O)[C@H](CO)NC(=O)[C@@H](N)Cc1ccc(O)cc1)[C@@H](C)O)[C@@H](C)O)C(C)C)C(=O)N[C@@H](CCC(=O)O)C(=O)N[C@@H](CC(=O)O)C(=O)N[C@@H](CCC(=O)O)C(=O)N1CCC[C@H]1C(=O)N[C@@H](CO)C(=O)N[C@@H](CO)C(=O)NCC(=O)N[C@@H](C)C(=O)N1CCC[C@H]1C(=O)N1CCC[C@H]1C(=O)N1CCC[C@H]1C(=O)N[C@@H](CO)C(=O)O` [Compound B14], in data set [1], the clearance is 2.65 mL/min/kg and the half-life is 13.9 h. At human GLP-1R, the EC50 was more than 1000 nM. At human GCGR, the EC50 is 0.501 nM.

In data set [1], `CC(C)C[C@H](NC(=O)[C@H](Cc1ccc(O)cc1)NC(=O)[C@H](CCCCN)NC(=O)[C@H](CO)NC(=O)[C@H](Cc1ccc(O)cc1)NC(=O)[C@H](CC(=O)O)NC(=O)[C@H](CO)NC(=O)[C@@H](NC(=O)[C@H](Cc1ccccc1)NC(=O)[C@@H](NC(=O)CNC(=O)[C@H](Cc1c[nH]cn1)NC(=O)[C@H](CO)NC(=O)[C@@H](N)Cc1ccc(O)cc1)[C@@H](C)O)[C@@H](C)O)C(=O)N[C@@H](CC(=O)O)C(=O)N[C@@H](CCCCNC(=O)COCCOCCNC(=O)COCCOCCNC(=O)CC[C@H](NC(=O)CCCCCCCCCCCCCCCCC(=O)O)C(=O)O)C(=O)N[C@@H](CCCCN)C(=O)N[C@@H](CO)C(=O)N[C@@H](C)C(=O)N[C@@H](CCC(N)=O)C(=O)N[C@@H](CCC(=O)O)C(=O)N[C@@H](Cc1ccccc1)C(=O)N[C@H](C(=O)NC(C)(C)C(=O)N[C@@H](Cc1c[nH]c2ccccc12)C(=O)N[C@@H](CC(C)C)C(=O)N[C@@H](CCC(=O)O)C(=O)N[C@@H](CC(=O)O)C(=O)N[C@@H](CCC(=O)O)C(=O)N1CCC[C@H]1C(=O)N[C@@H](CO)C(=O)N[C@@H](CO)C(=O)NCC(=O)N[C@@H](C)C(=O)N1CCC[C@H]1C(=O)N1CCC[C@H]1C(=O)N1CCC[C@H]1C(=O)N[C@@H](CO)C(=O)O)C(C)C` [Compound B15] had a clearance of 0.457 mL/min/kg and a half-life of 9.34 h. In addition, the EC50 on human GLP-1R was more than 1000 nM. The EC50 on human GCGR is 0.126 nM.

In data set [1], `CCCCCCCCCCCCCCCC(=O)N[C@@H](CCC(=O)NCCCC[C@H](NC(=O)[C@H](CO)NC(=O)[C@H](CCCCN)NC(=O)[C@@H]1CCCN1C(=O)[C@H](CCC(=O)O)NC(=O)[C@H](CC(=O)O)NC(=O)[C@H](CCC(=O)O)NC(=O)[C@H](CC(C)C)NC(=O)[C@H](Cc1c[nH]c2ccccc12)NC(=O)[C@H](CCCCN)NC(=O)[C@@H](NC(=O)[C@H](Cc1ccccc1)NC(=O)[C@H](CCC(=O)O)NC(=O)[C@H](CCC(N)=O)NC(=O)[C@H](C)NC(=O)[C@H](CCCNC(=N)N)NC(=O)[C@H](C)NC(=O)[C@H](C)NC(=O)[C@H](CC(=O)O)NC(=O)[C@H](CC(C)C)NC(=O)[C@H](Cc1ccc(O)cc1)NC(=O)[C@H](CCCCN)NC(=O)[C@H](CO)NC(=O)[C@H](Cc1ccc(O)cc1)NC(=O)[C@H](CC(=O)O)NC(=O)[C@H](CO)NC(=O)[C@@H](NC(=O)[C@H](Cc1ccccc1)NC(=O)[C@@H](NC(=O)CNC(=O)[C@H](CCC(N)=O)NC(=O)[C@H](CO)NC(=O)[C@@H](N)Cc1ccc(O)cc1)[C@@H](C)O)[C@@H](C)O)C(C)C)C(=O)N[C@@H](CO)C(=O)N1CCC[C@H]1C(=O)N1CCC[C@H]1C(=O)N1CCC[C@H]1C(=O)N[C@@H](CO)C(N)=O)C(=O)O` [Compound B33] (H-YSQGTFTSDYSKYLDAARAQEFVKWLEDEPKSK([γGlu-Palmitoyl])SPPPS-NH2) had a clearance of 6.96 mL/min/kg and a half-life of 0.429 h. Also, on human GLP-1R, the EC50 was more than 1000 nM. Further, the EC50 at human GCGR was 0.0251 nM.

For `CCCCCCCCCCCCCCCC(=O)N[C@@H](CCC(=O)NCCCC[C@H](NC(=O)[C@H](CO)NC(=O)[C@H](CO)NC(=O)[C@@H]1CCCN1C(=O)[C@H](CCC(=O)O)NC(=O)[C@H](CC(=O)O)NC(=O)[C@H](CCC(=O)O)NC(=O)[C@H](CC(C)C)NC(=O)[C@H](Cc1c[nH]c2ccccc12)NC(=O)[C@H](CCCCN)NC(=O)[C@@H](NC(=O)[C@H](Cc1ccccc1)NC(=O)[C@H](CCC(=O)O)NC(=O)[C@H](CCC(N)=O)NC(=O)[C@H](C)NC(=O)[C@H](CCCNC(=N)N)NC(=O)[C@H](C)NC(=O)[C@H](CO)NC(=O)[C@H](CC(=O)O)NC(=O)[C@H](CC(C)C)NC(=O)[C@H](Cc1ccc(O)cc1)NC(=O)[C@H](CCCCN)NC(=O)[C@H](CO)NC(=O)[C@H](Cc1ccc(O)cc1)NC(=O)[C@H](CC(=O)O)NC(=O)[C@H](CO)NC(=O)[C@@H](NC(=O)[C@H](Cc1ccccc1)NC(=O)[C@@H](NC(=O)CNC(=O)[C@H](Cc1c[nH]cn1)NC(=O)[C@H](CO)NC(=O)[C@@H](N)Cc1ccc(O)cc1)[C@@H](C)O)[C@@H](C)O)C(C)C)C(=O)N[C@@H](C)C(=O)N1CCC[C@H]1C(=O)N1CCC[C@H]1C(=O)N1CCC[C@H]1C(=O)N[C@@H](CO)C(N)=O)C(=O)O` [Compound B41] (H-YSHGTFTSDYSKYLDSARAQEFVKWLEDEPSSK([γGlu-Palmitoyl])APPPS-NH2), in data set [1], the clearance stood at 4.86 mL/min/kg and the half-life was 1.09 h. Besides, at human GLP-1R, the EC50 is more than 1000 nM. Also, the EC50 at human GCGR was 0.0251 nM.
